Assay results: US20230115208A1, “RING-FUSED THIAZOLINO 2-PYRIDONES, METHODS FOR PREPARATION THEREOF AND THEIR USE IN THE TREATMENT AND/OR PREVENTION OF TUBERCULOSIS” (QURETECH BIO AB, priority 2016, published 2023)
Where two headings read alike, the source gives them in different places.

Assays:
[1] = test system: Mycobacterium tuberculosis; type: cell-based
[2] = test system: Mycobacterium tuberculosis Erdman; test: Biofilm inhibition of Mycobacterium tuberculosis (ocular inspection); type: cell-based; conditions: for inhibition at 10 µM: read-out: Average % Inhibition at 10 μM; for inhibition at 25 µM: read-out: Average % Inhibition at 25 μM; for minimal effective concentration: concentration at which full biofilm inhibition took place, replicate determinations in one cell
[3] = test system: Erdman Wild-Type Mycobacterium tuberculosis; type: cell-based
katGFSAA6 Mtb = test: Lawn of katGFSAA6 Mtb plated on agar (FIG. 9c-9f); type: cell-based, Mycobacterium tuberculosis
[4] = test system: Mycobacterium tuberculosis; type: cell-based; remark: listed apart in the source
Mtb = conditions: cited from earlier work
[5] = biofilm inhibition, 25 μM, average of three or more measurements (100/50/0% scoring)
[6] = biofilm inhibition, average of three or more measurements (100/50/0% scoring)

O=C(O)[C@@H]1CSc2c(C3CC3)c(Cc3cccc4ccccc34)cc(=O)n21 [(3R)-7-Cyclopropyl-6-[(1-naphthyl)methyl]-4-oxo-1-thia-3a-aza-3-indancarboxylic acid]
eradication of Mycobacterium tuberculosis (conclusion) [1]: did not eradicate

O=C(O)[C@@H]1CSc2c(C3CC3)c(Cc3cccc4ccccc34)cc(=O)n21 [Example 1, (3R)-7-Cyclopropyl-6-[(1-naphthyl)methyl]-4-oxo-1-thia-3a-aza-3-indancarboxylic acid]
inhibition at 10 µM [2]: 100%
inhibition at 25 µM [2]: 100%
doubling time [3]: 52 h
fold less Mtb in the culture as compared to controls (CFU) [3]: 7.6 fold
growth of katGFSAA6 strain on agar (katGFSAA6 Mtb): able to grow

Cc1cccc(NCc2cc(=O)n3c(c2C2CC2)SC[C@H]3C(=O)O)c1C [Example 43, (3R)-7-Cyclopropyl-4-oxo-6-[(2,3-xylidino)methyl]-1-thia-3a-aza-3-indancarboxylic acid]
inhibition at 25 µM [2, 5]: 50%
inhibition at 50 µM [2, 6]: 100%

O=C(O)C1C[S+]([O-])c2c(C3CC3)c(Cc3cccc4ccccc34)cc(=O)n21 (centres unmarked) [Example 44, 7-Cyclopropyl-6-[(1-naphthyl)methyl]-1-oxo-4-oxo-1-thia-3a-aza-3-indancarboxylic acid]
inhibition at 10 µM ([2]; biofilm inhibition, 10 μM, average of three or more measurements (100/50/0% scoring)): 25%
inhibition at 25 µM [2, 5]: 75%
inhibition at 50 µM [2, 6]: 100%

CCOc1c(Cc2cccc3ccccc23)cc(=O)n2c1SC[C@H]2C(=O)O [Example 45, (3R)-7-Ethoxy-6-[(1-naphthyl)methyl]-4-oxo-1-thia-3a-aza-3-indancarboxylic acid]
inhibition at 25 µM [2, 5]: 50%
inhibition at 50 µM [2, 6]: 25%

CC1(C)Sc2c(C3CC3)c(Cc3cccc4ccccc34)cc(=O)n2[C@@H]1C(=O)O [Example 46, (3R)-7-Cyclopropyl-2,2-dimethyl-6-[(1-naphthyl)methyl]-4-oxo-1-thia-3a-aza-3-indancarboxylic acid]
inhibition at 25 µM [2, 5]: 62%
inhibition at 50 µM [2, 6]: 38%

O=C(O)[C@@H]1CSc2c(C(F)(F)F)c(Cc3cccc4ccccc34)cc(=O)n21 [Example 47, (3R)-6-[(1-Naphthyl)methyl]-4-oxo-7-(trifluoromethyl)-1-thia-3a-aza-3-indancarboxylic acid]
inhibition at 50 µM [2, 6]: 100%
minimal effective concentration [2]: > 50 µM

CC(C)COc1c(Cc2cccc3ccccc23)cc(=O)n2c1SC[C@H]2C(=O)O [Example 48, (3R)-7-Isobutoxy-6-[(1-naphthyl)methyl]-4-oxo-1-thia-3a-aza-3-indancarboxylic acid]
inhibition at 50 µM [2, 6]: 50%

COc1ccc2ccccc2c1Cc1cc(=O)n2c(c1C1CC1)SC[C@H]2C(=O)O [Example 49, (3R)-7-Cyclopropyl-6-[(2-methoxy-1-naphthyl)methyl]-4-oxo-1-thia-3a-aza-3-indancarboxylic acid]
minimal effective concentration [2]: 25 µM

O=C(O)[C@@H]1CSc2c(OCC3CC3)c(Cc3cccc4ccccc34)cc(=O)n21 [Example 50, (3R)-7-(Cyclopropylmethoxy)-6-[(1-naphthyl)methyl]-4-oxo-1-thia-3a-aza-3-indancarboxylic acid]
inhibition at 50 µM [2, 6]: 25%

NNC(=O)c1ccncc1 [INH, isonicotinylhydrazide, reference compound]
tuberculosis bacteria detected (ratio of CFU treated/untreated) ([4]; […], Example 1 50 microM, Example 19 25 microM): tuberculosis bacteria remained
eradication of Mycobacterium tuberculosis (conclusion) ([4]; conclusions from FIG. 5 and FIG. 6 experiments): did not eradicate
Mtb growth as measured by ODλ600 [3]: completely inhibited
culturable bacteria remaining (CFU) [3]: several thousand
growth of katGFSAA6 strain on agar (katGFSAA6 Mtb; agar plates containing INH, Example 1 or combination): able to grow
MIC (Mtb): 0.02 to 0.06 µg/mL
